A short description of data set [1]: Solubility of isolated salt forms (salt screen).
Data set [2] in a line: Chemical stability of salt forms. The note with it: upon scale up. In kind it is physicochemical. The source says: Malate salts of 7-[3S-amino-5S-methyl-piperidinyl]-1-cyclopropyl-1,4-dihydro-8-methoxy-4-oxo-3-quinolinecarboxylic acid may be formed and isolated under practical manufacturing conditions. Use of the chiral malate for salt formation (as the racemic mix or the chirally pure forms) may in some instances assist with chiral purification of 7-[3S-amino-5S-methyl-piperidinyl]-1-cyclopropyl-1,4-dihydro-8-methoxy-4-oxo-3-quinolinecarboxylic acid. […] Using the same test methods, the anhydrate forms are shown to pick up moisture and spontaneously convert to the corresponding hydrated form upon exposure to humidity.

In the case of `COc1c(N2C[C@@H](C)C[C@H](N)C2)ccc2c(=O)c(C(=O)O)cn(C3CC3)c12` (racemic) [DL-malate, hemi-hydrate, (3S,5S)-7-[3-amino-5-methyl-piperidinyl]-1-cyclopropyl-1,4-dihydro-8-methoxy-4-oxo-3-quinolinecarboxylic acid], the Solubility in data set [1] (salt screen, Table 1) was 12 (hemi- mg/ml.

As to `O=C(O)[C@H]1OC(O)[C@H](O)[C@@H](O)[C@@H]1O` (stereo partly drawn) [D-Glucuronate], the “Ease of Isolation (degradation)” value in data set [2] is reported as “Degradation”. Also, in data set [1] (salt screen, Table 1), the Solubility was found to be 8 mg/mL.

On to `COc1c(N2C[C@@H](C)C[C@H](N)C2)ccc2c(=O)c(C(=O)O)cn(C3CC3)c12` [Freebase, (3S,5S)-7-[3-amino-5-methyl-piperidinyl]-1-cyclopropyl-1,4-dihydro-8-methoxy-4-oxo-3-quinolinecarboxylic acid], for which the Solubility in data set [1] (water) was under 1 mg/mL.

As for Fumarate, the Solubility in data set [1] (salt screen, Table 1) came out at 9 mg/mL.

The values above are taken from patent US20070232650A1, “Malate salts, and polymorphs of (3S,5S)-7-[3-amino-5-methyl-piperidinyl]-1-cyclopropyl-1,4-dihydro-8-methoxy-4-oxo-3-quinolinecarboxylic acid” (The Procter & Gamble Company, priority 2006, published 2007).
